The values that follow come from patent US20250248973A1, “CANNABINOID RECEPTOR 1 ANTAGONISTS/INVERSE AGONISTS AND USES THEREOF” (Corbus Pharmaceuticals, Inc., priority 2022, published 2025).

Where only a bound is given, the exact number is not on record here.

Assay [1] deals with Human CB1 Receptor-1b (hCB1b) (Homo sapiens (Human), UniProt P21554). Briefly: hCB1b Gai cyclic AMP (cAMP) TR-FRET assay, antagonism of EC80 CP55940 with forskolin. Particulars: hCB1b cells, 30 min pre-incubation, read-out: CB1b IC50. It is filed as cell-based. The essentials: (§1)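 Cells expressing hCB1 or hCB1b were preincubated with compound for 30 min at rt, then stimulated with an EC80 concentration of CP55940 plus forskolin for 20 min at 37C. cAMP was measured by TR-FRET using Eu-cAMP and 650-labeled anti-cAMP in lysis buffer, with emission at 620/665 nm. IC50 values are binned by category.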
Human CB1 Receptor-1b (hCB1b), sequence (P21554 other isoform, or with tags, fused parts or gaps): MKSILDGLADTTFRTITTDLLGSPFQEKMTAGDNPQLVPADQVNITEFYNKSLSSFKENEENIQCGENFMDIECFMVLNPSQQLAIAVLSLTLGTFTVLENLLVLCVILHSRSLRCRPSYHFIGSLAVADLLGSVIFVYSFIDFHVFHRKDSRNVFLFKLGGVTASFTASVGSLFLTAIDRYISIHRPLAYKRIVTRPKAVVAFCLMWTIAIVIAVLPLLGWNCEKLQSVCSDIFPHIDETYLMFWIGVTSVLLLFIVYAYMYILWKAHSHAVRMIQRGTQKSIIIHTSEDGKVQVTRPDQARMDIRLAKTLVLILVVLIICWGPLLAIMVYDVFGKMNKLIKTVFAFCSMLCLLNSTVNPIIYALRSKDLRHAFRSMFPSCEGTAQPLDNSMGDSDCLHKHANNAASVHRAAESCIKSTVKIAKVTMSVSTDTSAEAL
In general terms: In TR-FRET formats the signal depends on donor and acceptor labels being close together.

For assay [2], the target named is Human CB1 Receptor-1 (hCB1) (Homo sapiens (Human), UniProt P21554). Briefly: hCB1 Gai cyclic AMP (cAMP) TR-FRET assay, antagonism of EC80 CP55940 with forskolin. The class given is cell-based. The conditions noted are these: hCB1 cells, 30 min pre-incubation. The essentials:
as §1

Human CB1 Receptor-1 (hCB1), sequence (P21554 whole entry): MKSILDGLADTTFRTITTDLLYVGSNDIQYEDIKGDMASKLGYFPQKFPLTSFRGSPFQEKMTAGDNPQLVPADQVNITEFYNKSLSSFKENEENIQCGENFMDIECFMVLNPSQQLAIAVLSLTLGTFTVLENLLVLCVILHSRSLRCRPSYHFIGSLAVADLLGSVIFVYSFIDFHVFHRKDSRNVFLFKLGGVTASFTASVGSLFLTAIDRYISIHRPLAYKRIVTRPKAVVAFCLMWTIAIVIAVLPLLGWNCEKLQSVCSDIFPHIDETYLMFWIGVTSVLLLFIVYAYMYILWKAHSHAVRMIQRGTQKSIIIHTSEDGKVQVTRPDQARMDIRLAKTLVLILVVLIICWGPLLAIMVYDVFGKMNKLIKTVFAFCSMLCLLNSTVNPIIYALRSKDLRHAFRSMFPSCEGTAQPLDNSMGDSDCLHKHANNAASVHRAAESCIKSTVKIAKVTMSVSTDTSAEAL

As for `CC(C)(CN/C(=N\S(=O)(=O)c1ccc(Cl)cc1)N1C[C@H](c2ccccc2)C(c2ccc(Cl)cc2)=N1)CS(N)(=O)=O` [Compound 87, (S,E)-3-(4-chlorophenyl)-N′-((4-chlorophenyl)sulfonyl)-N-(2,2-dimethyl-3-sulfamoylpropyl)-4-phenyl-4,5-dihydro-1H-pyrazole-1-carboximidamide], the IC50 in assay [1] and in assay [2] was 100 to 500 nM in each case.
`NS(=O)(=O)CCCCN/C(=N\S(=O)(=O)c1ccc(Cl)cc1)N1C[C@H](c2ccccc2)C(c2ccc(Cl)cc2)=N1` [Compound 99, (S,E)-3-(4-chlorophenyl)-N′-((4-chlorophenyl)sulfonyl)-4-phenyl-N-(4-sulfamoylbutyl)-4,5-dihydro-1H-pyrazole-1-carboximidamide]: the concentration for half-maximal inhibition (IC50) in assay [1] and in assay [2] was greater than 500 nM in each case.
As to `CN(CCS(N)(=O)=O)/C(=N/S(=O)(=O)c1ccc(Cl)cc1)N1C[C@H](c2ccccc2)C(c2ccc(Cl)cc2)=N1` [Compound 109, (S,Z)-3-(4-chlorophenyl)-N′-((4-chlorophenyl)sulfonyl)-N-methyl-4-phenyl-N-(2-sulfamoylethyl)-4,5-dihydro-1H-pyrazole-1-carboximidamide], the IC50 in assay [1] and in assay [2] was greater than 500 nM in each case.
Turning to `NS(=O)(=O)C1CCN(/C(=N/S(=O)(=O)c2ccc(Cl)cc2)N2C[C@H](c3ccccc3)C(c3ccc(F)cc3)=N2)CC1` [Compound 111, (S,Z)-1-((((4-chlorophenyl)sulfonyl)imino)(3-(4-fluorophenyl)-4-phenyl-4,5-dihydro-1H-pyrazol-1-yl)methyl)piperidine-4-sulfonamide], the IC50 in assay [1] and in assay [2] was greater than 500 nM in each case.
In the case of `NS(=O)(=O)C1CCN(/C(=N/S(=O)(=O)c2ccc(Cl)cc2)N2C[C@H](c3ccccc3)C(c3ccc(Cl)cc3)=N2)CC1` [Compound 113, (S,Z)-1-((3-(4-chlorophenyl)-4-phenyl-4,5-dihydro-1H-pyrazol-1-yl)(((4-chlorophenyl)sulfonyl)imino)methyl)piperidine-4-sulfonamide], the IC50 in assay [1] and in assay [2] was greater than 500 nM in each case.
For the molecule `NS(=O)(=O)[C@@H]1CC[C@H](N/C(=N/S(=O)(=O)c2ccc(Cl)cc2)N2C[C@H](c3ccccc3)C(c3ccc(Cl)cc3)=N2)C1` [Compound 143, (S,Z)-3-(4-chlorophenyl)-N′-((4-chlorophenyl)sulfonyl)-4-phenyl-N-((1S,3R)-3-sulfamoylcyclopentyl)-4,5-dihydro-1H-pyrazole-1-carboximidamide], the half-inhibitory concentration (IC50) in assay [1] and in assay [2] was less than 100 nM in each case.
As for `NS(=O)(=O)[C@H]1CC[C@@H](N/C(=N/S(=O)(=O)c2ccc(Cl)cc2)N2C[C@H](c3ccccc3)C(c3ccc(F)cc3)=N2)C1` [Compound 147, (S,Z)-N′-((4-chlorophenyl)sulfonyl)-3-(4-fluorophenyl)-4-phenyl-N-((1R,3S)-3-sulfamoylcyclopentyl)-4,5-dihydro-1H-pyrazole-1-carboximidamide], the IC50 in assay [1] and in assay [2] was 100 to 500 nM each time.
Consider `NS(=O)(=O)[C@@H]1CC[C@H](N/C(=N/S(=O)(=O)c2ccc(Cl)cc2)N2C[C@H](c3ccccc3)C(c3ccc(F)cc3)=N2)C1` [Compound 149, (S,Z)-N′-((4-chlorophenyl)sulfonyl)-3-(4-fluorophenyl)-4-phenyl-N-((1S,3R)-3-sulfamoylcyclopentyl)-4,5-dihydro-1H-pyrazole-1-carboximidamide], for which the IC50 in assay [1] and in assay [2] was 100 to 500 nM throughout.
On to `NS(=O)(=O)[C@H]1CC[C@H](N/C(=N/S(=O)(=O)c2ccc(Cl)cc2)N2C[C@H](c3ccccc3)C(c3ccc(F)cc3)=N2)C1` [Compound 151, (S,Z)-N′-((4-chlorophenyl)sulfonyl)-3-(4-fluorophenyl)-4-phenyl-N-((1S,3S)-3-sulfamoylcyclopentyl)-4,5-dihydro-1H-pyrazole-1-carboximidamide], for which the values for the IC50 in assay [1] and in assay [2] were less than 100 nM and 100 to 500 nM, respectively.
Turning to `NS(=O)(=O)[C@@H]1CC[C@@H](N/C(=N/S(=O)(=O)c2ccc(Cl)cc2)N2C[C@H](c3ccccc3)C(c3ccc(F)cc3)=N2)C1` [Compound 153, (S,Z)-N′-((4-chlorophenyl)sulfonyl)-3-(4-fluorophenyl)-4-phenyl-N-((1R,3R)-3-sulfamoylcyclopentyl)-4,5-dihydro-1H-pyrazole-1-carboximidamide], the IC50 in assay [1] was less than 100 nM; in assay [2] it was 100 to 500 nM.
On the same counts, the results for `CN(C)S(=O)(=O)CCN/C(=N\S(=O)(=O)c1ccc(Cl)cc1)N1C[C@H](c2ccccc2)C(c2ccc(Cl)cc2)=N1` [Compound 155, (S,E)-3-(4-chlorophenyl)-N′-((4-chlorophenyl)sulfonyl)-N-(2-(N,N-dimethylsulfamoyl)ethyl)-4-phenyl-4,5-dihydro-1H-pyrazole-1-carboximidamide] are less than 100 nM and less than 100 nM.
`CN1CCN(S(=O)(=O)CCN/C(=N\S(=O)(=O)c2ccc(Cl)cc2)N2C[C@H](c3ccccc3)C(c3ccc(Cl)cc3)=N2)CC1` [Compound 157, (S,E)-3-(4-chlorophenyl)-N′-((4-chlorophenyl)sulfonyl)-N-(2-((4-methylpiperazin-1-yl)sulfonyl)ethyl)-4-phenyl-4,5-dihydro-1H-pyrazole-1-carboximidamide]: the IC50 was 100 to 500 nM in assay [1] and less than 100 nM in assay [2].
In the case of `O=S(=O)(/N=C(\NCCS(=O)(=O)N1CCNCC1)N1C[C@H](c2ccccc2)C(c2ccc(Cl)cc2)=N1)c1ccc(Cl)cc1` [Compound 159, (S,E)-3-(4-chlorophenyl)-N′-((4-chlorophenyl)sulfonyl)-4-phenyl-N-(2-(piperazin-1-ylsulfonyl)ethyl)-4,5-dihydro-1H-pyrazole-1-carboximidamide], the IC50 in assay [1] and in assay [2] was less than 100 nM in each case.
Take `CN(C)S(=O)(=O)CCNC(=NS(=O)(=O)c1ccc(Cl)cc1)N1C[C@H](c2ccccc2)C(c2ccc(F)cc2)=N1` [Compound 161, (S,E)-N′-((4-chlorophenyl)sulfonyl)-N-(2-(N,N-dimethylsulfamoyl)ethyl)-3-(4-fluorophenyl)-4-phenyl-4,5-dihydro-1H-pyrazole-1-carboximidamide]: the IC50 in assay [1] and in assay [2] was 100 to 500 nM throughout.
Consider `CN1CCN(S(=O)(=O)CCN/C(=N\S(=O)(=O)c2ccc(Cl)cc2)N2C[C@H](c3ccccc3)C(c3ccc(F)cc3)=N2)CC1` [Compound 163, (S,E)-N′-((4-chlorophenyl)sulfonyl)-3-(4-fluorophenyl)-N-(2-((4-methylpiperazin-1-yl)sulfonyl)ethyl)-4-phenyl-4,5-dihydro-1H-pyrazole-1-carboximidamide], for which the results for the IC50 in assay [1] and in assay [2] were 100 to 500 nM and less than 100 nM, respectively.
`CN1CCN(S(=O)(=O)CCN/C(=N\S(=O)(=O)c2ccc(F)cc2)N2C[C@H](c3ccccc3)C(c3ccc(F)cc3)=N2)CC1` [Compound 165, (S,E)-3-(4-fluorophenyl)-N′-((4-fluorophenyl)sulfonyl)-N-(2-((4-methylpiperazin-1-yl)sulfonyl)ethyl)-4-phenyl-4,5-dihydro-1H-pyrazole-1-carboximidamide]: the IC50 in assay [1] is 100 to 500 nM; in assay [2], less than 100 nM.
On the same counts, the results for `CN(C)S(=O)(=O)CCN/C(=N\S(=O)(=O)c1ccc(F)cc1)N1C[C@H](c2ccccc2)C(c2ccc(F)cc2)=N1` [Compound 167, (S,E)-N-(2-(N,N-dimethylsulfamoyl)ethyl)-3-(4-fluorophenyl)-N′-((4-fluorophenyl)sulfonyl)-4-phenyl-4,5-dihydro-1H-pyrazole-1-carboximidamide] are less than 100 nM and less than 100 nM.
On the same counts, the results for `CNS(=O)(=O)CCN/C(=N\S(=O)(=O)c1ccc(Cl)cc1)N1C[C@H](c2ccccc2)C(c2ccc(Cl)cc2)=N1` [Compound 169, (S,E)-3-(4-chlorophenyl)-N′-((4-chlorophenyl)sulfonyl)-N-(2-(N-methylsulfamoyl)ethyl)-4-phenyl-4,5-dihydro-1H-pyrazole-1-carboximidamide] are less than 100 nM and less than 100 nM.
On the same counts, the results for `CN(CCNS(N)(=O)=O)/C(=N\S(=O)(=O)c1ccc(Cl)cc1)N1C[C@H](c2ccccc2)C(c2ccc(Cl)cc2)=N1` [Compound 173, (S,E)-3-(4-chlorophenyl)-N′-((4-chlorophenyl)sulfonyl)-N-methyl-4-phenyl-N-(2-(sulfamoylamino)ethyl)-4,5-dihydro-1H-pyrazole-1-carboximidamide] are 100 to 500 nM and 100 to 500 nM.
As for `NS(=O)(=O)NCCN/C(=N\S(=O)(=O)c1ccc(Cl)cc1)N1C[C@H](c2ccccc2)C(c2ccc(Cl)cc2)=N1` [Compound 183, (S,E)-3-(4-chlorophenyl)-N′-((4-chlorophenyl)sulfonyl)-4-phenyl-N-(2-(sulfamoylamino)ethyl)-4,5-dihydro-1H-pyrazole-1-carboximidamide], the IC50 in assay [1] and in assay [2] was less than 100 nM in each case.
On to `CC(CN/C(=N\S(=O)(=O)c1ccc(Cl)cc1)N1C[C@H](c2ccccc2)C(c2ccc(Cl)cc2)=N1)NS(N)(=O)=O` (stereo partly drawn) [Compound 185, (4S,E)-3-(4-chlorophenyl)-N′-((4-chlorophenyl)sulfonyl)-4-phenyl-N-(2-(sulfamoylamino)propyl)-4,5-dihydro-1H-pyrazole-1-carboximidamide], for which the values for the concentration for half-maximal inhibition (IC50) in assay [1] and in assay [2] were less than 100 nM and 100 to 500 nM, respectively.
`CN(CCNC(=NS(=O)(=O)c1ccc(Cl)cc1)N1C[C@H](c2ccccc2)C(c2ccc(Cl)cc2)=N1)S(N)(=O)=O` [Compound 187, (S,E)-3-(4-chlorophenyl)-N′-((4-chlorophenyl)sulfonyl)-N-(2-(methyl(sulfamoyl)amino)ethyl)-4-phenyl-4,5-dihydro-1H-pyrazole-1-carboximidamide]: the IC50 in assay [1] and in assay [2] was 100 to 500 nM throughout.

For orientation: IC50 means the concentration needed to halve the response being measured.
